Data published in patent US3984481A, “Bis-2-substituted-thiovinyl sulfones” (Chevron Research Company, priority 1976, dated 1976).
Where two headings read alike, the source gives them in different places.

Legend:
Aspergillus niger = assay: Mycelial inhibition test
Botrytis cinerea = assay: Mycelial inhibition test
Pythium ultimum = assay: Mycelial inhibition test
Rhizoctonia solani = assay: Mycelial inhibition test
Fusarium moniloforma = assay: Mycelial inhibition test
Lemna = assay: Algae control (aquatic weed control) test; type: in vivo; conditions: read-out: Percent Aquatic Weed Control
Protocol: (§1) Representative compounds of the invention were tested as algicides by the following method. The algae test species were Lemna, Elodea and Spirolina. An acetone solution of the test compound and a small amount of an alkylarylpolyoxyethylene glycol-containing surfactant was prepared. This solution was mixed with a nutrient broth in a quantity sufficient to give a concentration of 2 ppm. A 240 ml container was filled with this mixture. A sample of the test algae was added to each container and the container was then placed in an illuminated environment and maintained at a temperature of about 20°C for incubation. The containers were observed periodically for algae growth (as compared to an untreated check). The algicidal effectiveness of the test compound was determined based on a final observation of algae growth after 7 to 10 days. The results of the test on a 0 to 100 basis -- 0 indicating no effectiveness and 100 indicating complete effectiveness -- are reported in Table III.

Elodea = assay: Algae control (aquatic weed control) test; type: in vivo; conditions: read-out: Percent Aquatic Weed Control
Protocol: as §1

Spirolina = assay: Algae control (aquatic weed control) test; type: in vivo; conditions: read-out: Percent Aquatic Weed Control
Protocol: as §1

[1] = Aspergillus niger, 99% control, 25°C, 24 hours, 500 ppm acetone solution sprayed
[2] = Botrytis cinerea, 99% control, 25°C, 24 hours, 500 ppm acetone solution sprayed
[3] = Pythium ultimum, 99% control, 25°C, 24 hours, 500 ppm acetone solution sprayed
[4] = Rhizoctonia solani, 99% control, 25°C, 24 hours, 500 ppm acetone solution sprayed
[5] = Fusarium moniloforma, 99% control, 25°C, 24 hours, 500 ppm acetone solution sprayed
[6] = 2 ppm, 20°C, 7 to 10 days, 0 no effectiveness, 100 complete effectiveness
[7] = Elodea, 2 ppm, 20°C, 7 to 10 days, 0 no effectiveness, 100 complete effectiveness
[8] = Spirolina, 2 ppm, 20°C, 7 to 10 days, 0 no effectiveness, 100 complete effectiveness

Structure (SMILES): O=S(=O)(C=CSc1cccc(Cl)c1)C=CSc1cccc(Cl)c1 [Compound 2]
- Mycelia Inhibition, micrograms/cm^2 for 99% control (Aspergillus niger; [1]): 1.1 micrograms/cm^2
- Mycelia Inhibition, micrograms/cm^2 for 99% control (Botrytis cinerea; [2]): 1.2 micrograms/cm^2
- Mycelia Inhibition, micrograms/cm^2 for 99% control (Pythium ultimum; [3]): > 1.7 micrograms/cm^2
- Mycelia Inhibition, micrograms/cm^2 for 99% control (Rhizoctonia solani; [4]): 1.5 micrograms/cm^2
- Mycelia Inhibition, micrograms/cm^2 for 99% control (Fusarium moniloforma; [5]): > 1.7 micrograms/cm^2
- inhibition at 2 ppm (Lemna; [6]): 100%
- inhibition at 2 ppm (Elodea; [7]): 94%
- inhibition at 2 ppm (Spirolina; [8]): 0%

Structure (SMILES): O=S(=O)(C=CSc1ccccc1)C=CSc1ccccc1 [Compound 8]
- Mycelia Inhibition, micrograms/cm^2 for 99% control (Aspergillus niger; [1]): 0.50 micrograms/cm^2
- Mycelia Inhibition, micrograms/cm^2 for 99% control (Botrytis cinerea; [2]): 1.5 micrograms/cm^2
- Mycelia Inhibition, micrograms/cm^2 for 99% control (Pythium ultimum; [3]): > 1.7 micrograms/cm^2
- Mycelia Inhibition, micrograms/cm^2 for 99% control (Rhizoctonia solani; [4]): 0.88 micrograms/cm^2
- Mycelia Inhibition, micrograms/cm^2 for 99% control (Fusarium moniloforma; [5]): > 1.7 micrograms/cm^2
- inhibition at 2 ppm (Lemna; [6]): 0%
- inhibition at 2 ppm (Elodea; [7]): 39%
- inhibition at 2 ppm (Spirolina; [8]): 30%

Structure (SMILES): O=[N+]([O-])c1ccc(SC=CS(=O)(=O)C=CSc2ccc([N+](=O)[O-])cc2)cc1 [Compound 6]
- Mycelia Inhibition, micrograms/cm^2 for 99% control (Aspergillus niger): 0.34 micrograms/cm^2
- Mycelia Inhibition, micrograms/cm^2 for 99% control (Botrytis cinerea): 0.7 micrograms/cm^2
- Mycelia Inhibition, micrograms/cm^2 for 99% control (Pythium ultimum): 0.73 micrograms/cm^2
- Mycelia Inhibition, micrograms/cm^2 for 99% control (Rhizoctonia solani): 0.50 micrograms/cm^2
- Mycelia Inhibition, micrograms/cm^2 for 99% control (Fusarium moniloforma): > 1.7 micrograms/cm^2
- inhibition at 2 ppm (Lemna): 99%
- inhibition at 2 ppm (Elodea): 78%
- inhibition at 2 ppm (Spirolina): 90%

Structure (SMILES): O=S(=O)(C=CSc1cc(Cl)ccc1Cl)C=CSc1cc(Cl)ccc1Cl [Compound 4]
- Mycelia Inhibition, micrograms/cm^2 for 99% control (Aspergillus niger; [1]): > 1.7 micrograms/cm^2
- Mycelia Inhibition, micrograms/cm^2 for 99% control (Botrytis cinerea; [2]): 0.70 micrograms/cm^2
- Mycelia Inhibition, micrograms/cm^2 for 99% control (Pythium ultimum; [3]): > 1.7 micrograms/cm^2
- Mycelia Inhibition, micrograms/cm^2 for 99% control (Rhizoctonia solani; [4]): 1.2 micrograms/cm^2
- Mycelia Inhibition, micrograms/cm^2 for 99% control (Fusarium moniloforma; [5]): > 1.7 micrograms/cm^2
- inhibition at 2 ppm (Lemna; [6]): 39%
- inhibition at 2 ppm (Elodea; [7]): 70%
- inhibition at 2 ppm (Spirolina; [8]): 80%

Structure (SMILES): O=S(=O)(C=CSc1ccc(Cl)c(Cl)c1)C=CSc1ccc(Cl)c(Cl)c1 [Compound 7]
- Mycelia Inhibition, micrograms/cm^2 for 99% control (Aspergillus niger; [1]): 1.1 micrograms/cm^2
- Mycelia Inhibition, micrograms/cm^2 for 99% control (Botrytis cinerea; [2]): 0.70 micrograms/cm^2
- Mycelia Inhibition, micrograms/cm^2 for 99% control (Pythium ultimum; [3]): 0.78 micrograms/cm^2
- Mycelia Inhibition, micrograms/cm^2 for 99% control (Rhizoctonia solani; [4]): 0.97 micrograms/cm^2
- Mycelia Inhibition, micrograms/cm^2 for 99% control (Fusarium moniloforma; [5]): 1.0 micrograms/cm^2
- inhibition at 2 ppm (Lemna; [6]): 70%
- inhibition at 2 ppm (Elodea; [7]): 90%
- inhibition at 2 ppm (Spirolina; [8]): 95%

Structure (SMILES): O=S(=O)(C=CSc1ccc(Cl)cc1)C=CSc1ccc(Cl)cc1 [Compound 1]
- Mycelia Inhibition, micrograms/cm^2 for 99% control (Aspergillus niger; [1]): 0.86 micrograms/cm^2
- Mycelia Inhibition, micrograms/cm^2 for 99% control (Pythium ultimum; [3]): 0.22 micrograms/cm^2
- Mycelia Inhibition, micrograms/cm^2 for 99% control (Rhizoctonia solani; [4]): 0.9 micrograms/cm^2
- Mycelia Inhibition, micrograms/cm^2 for 99% control (Fusarium moniloforma; [5]): > 1.7 micrograms/cm^2
- inhibition at 2 ppm (Lemna; [6]): 68%
- inhibition at 2 ppm (Elodea; [7]): 97%

Structure (SMILES): O=S(=O)(C=CSc1ccc(F)cc1)C=CSc1ccc(F)cc1 [Compound 5]
- Mycelia Inhibition, micrograms/cm^2 for 99% control (Aspergillus niger; [1]): > 1.7 micrograms/cm^2
- Mycelia Inhibition, micrograms/cm^2 for 99% control (Botrytis cinerea; [2]): > 1.7 micrograms/cm^2
- Mycelia Inhibition, micrograms/cm^2 for 99% control (Pythium ultimum; [3]): > 1.7 micrograms/cm^2
- Mycelia Inhibition, micrograms/cm^2 for 99% control (Rhizoctonia solani; [4]): > 1.7 micrograms/cm^2
- Mycelia Inhibition, micrograms/cm^2 for 99% control (Fusarium moniloforma; [5]): > 1.7 micrograms/cm^2
- inhibition at 2 ppm (Lemna; [6]): 30%
- inhibition at 2 ppm (Elodea; [7]): 70%
- inhibition at 2 ppm (Spirolina; [8]): 80%

Structure (SMILES): O=S(=O)(CCSc1ccc(Cl)cc1)CCSc1ccc(Cl)cc1 [Compound 10, bis-2-(4-chlorophenylthio)ethyl sulfone, reference compound]
- Mycelia Inhibition, micrograms/cm^2 for 99% control (Aspergillus niger; [1]): > 1.7 micrograms/cm^2
- Mycelia Inhibition, micrograms/cm^2 for 99% control (Botrytis cinerea; [2]): > 1.7 micrograms/cm^2
- Mycelia Inhibition, micrograms/cm^2 for 99% control (Pythium ultimum; [3]): > 1.7 micrograms/cm^2
- Mycelia Inhibition, micrograms/cm^2 for 99% control (Rhizoctonia solani; [4]): > 1.7 micrograms/cm^2
- Mycelia Inhibition, micrograms/cm^2 for 99% control (Fusarium moniloforma; [5]): > 1.7 micrograms/cm^2
- inhibition at 2 ppm (Lemna; [6]): 0%
- inhibition at 2 ppm (Elodea; [7]): 0%
- inhibition at 2 ppm (Spirolina; [8]): 0%

Structure (SMILES): O=S(=O)(C=CSc1ccc(Br)cc1)C=CSc1ccc(Br)cc1 [Compound 3, bis-2-(4-bromophenylthio)vinyl sulfone]
- Mycelia Inhibition, micrograms/cm^2 for 99% control (Aspergillus niger; [1]): 0.73 micrograms/cm^2
- Mycelia Inhibition, micrograms/cm^2 for 99% control (Botrytis cinerea; [2]): 1.4 micrograms/cm^2
- Mycelia Inhibition, micrograms/cm^2 for 99% control (Pythium ultimum; [3]): > 1.7 micrograms/cm^2
- Mycelia Inhibition, micrograms/cm^2 for 99% control (Rhizoctonia solani; [4]): 1.4 micrograms/cm^2
- Mycelia Inhibition, micrograms/cm^2 for 99% control (Fusarium moniloforma; [5]): > 1.7 micrograms/cm^2
- inhibition at 2 ppm (Lemna; [6]): 94%
- inhibition at 2 ppm (Elodea; [7]): 94%
- inhibition at 2 ppm (Spirolina; [8]): 40%
